Results: patent publication US20070093520A1, “Method of treatment of diarrhea-predominant irritable bowel syndrome in a subject” (priority 2005, published 2007)

Test system: diarrhea-predominant IBS subjects
Format: in vivo, human
Details: Cilansetron 2 mg, N=1454
Method: The study was performed in approximately 150 study centers. Approximately 1600 eligible subjects were to be given cilansetron 2 mg TID. At Visit 1, pre-treatment assessments were conducted. […] Subjects were to return to the study site one month later for Visit 3 (Day 31) for their first interim assessment. […] All subjects who discontinued from the study were to have the same post-study assessments required at Visit 7 performed at their early termination visit. […]
Stool specimens were analyzed at every visit for occult blood. An independent GERB had been established to provide advice on GI AEs during the course of the study.
Adverse events were assessed at Baseline, at each clinic visit, and at the end of the study (Month 12 or the early termination visit). All AEs, which occurred during the study were followed up in accordance with good medical practice until resolved or judged no longer clinically significant, or if a condition was chronic, until fully characterized. Adverse events could occur in the specified follow-up period and, regardless of the interval since the last administration of the study medication, were treated in the same manner as an AE which occurred during the treatment with study medication. Each AE was evaluated for duration, severity, seriousness, and causal relationship to the investigational drug. The action taken and the outcome were also recorded.
Specifically, subjects who were lost to follow-up and had no post-Baseline contact with the site were excluded from the Safety population. The subjects who discontinued from the study due to lost to follow-up were identified based on the information collected on the study termination CRF page.
After the pretreatment assessment at Visit 1 (Days […] to −3), subjects were to return to the study site for a Baseline assessment and start the treatment at Visit 2 (Day 1).
For the by time-interval analyses of disposition, prevalence of AEs, and of markedly abnormal and predefined changes in laboratory values, vital signs, and ECGs, the following interval windows were used:
Adverse events that were already present prior to the first dose of cilansetron study medication but increased in severity afterwards were considered as treatment-emergent.
The 5% cutoff point was based on the incidence within higher level terms.
Subjects were counted at most once for each primary system organ class and preferred term. Serious AEs that resolved prior to receiving study medication or occurred more than 30 days after the last dose of study medication were not included in the incidence tables. A listing of all SAEs is presented; SAEs with onset prior to receiving study medication or more than 30 days after discontinuation of study medication were flagged. The listing presents lower level term and preferred term of the SAE, severity, action taken, outcome, and relationship of the SAE, start and stop date of the SAE, study day of onset of the SAE, age, race, and sex.

Question: What does the source list for Cc1nccn1C[C@H]1CCc2c(c3cccc4c3n2CCC4)C1=O [cilansetron, (R)-(−)-4,5,6,8,9,10-hexahydro-10-[(2-methyl-1H-imidazol-1-yl)methyl]-11H-pyrido-[3,2,1-jk]-carbazol-11-one]?
Answer: TEAE incidence: Intestinal Haemorrhages: 22 (2%) n (%); TEAE incidence: Intestinal Infections: 1 (<1%) n (%); TEAE incidence: Intestinal Mucosal Hypertrophy: 1 (<1%) n (%); TEAE incidence: Intestinal Spasm: 1 (<1%) n (%); TEAE incidence: Investigations: 176 (12%) n (%); TEAE incidence: Irritable Bowel Syndrome Aggravated: 13 (<1%) n (%); TEAE incidence: Lacunar Infarction: 1 (<1%) n (%); TEAE incidence: Liver Function Analyses: 36 (2%) n (%); TEAE incidence: Liver Function Tests NOS Abnormal: 1 (<1%) n (%); TEAE incidence: Loose Stools: 15 (1%) n (%); TEAE incidence: Lumbar Spinal Cord and Nerve Root Disorders: 1 (<1%) n (%); TEAE incidence: Lymphocyte Count Decreased: 1 (<1%) n (%); TEAE incidence: Lymphocyte Count Increased: 1 (<1%) n (%); TEAE incidence: Lymphocyte Percentage Decreased: 1 (<1%) n (%); TEAE incidence: Memory Impairment: 1 (<1%) n (%); TEAE incidence: Memory Loss (Excl Dementia): 2 (<1%) n (%); TEAE incidence: Meralgia Paraesthetica: 1 (<1%) n (%); TEAE incidence: Metabolism Tests NEC: 9 (<1%) n (%); TEAE incidence: Migraine Aggravated: 1 (<1%) n (%); TEAE incidence: Migraine Headaches: 7 (<1%) n (%); TEAE incidence: Migraine NOS: 6 (<1%) n (%); TEAE incidence: Mineral and Electrolyte Analyses: 4 (<1%) n (%); TEAE incidence: Monocyte Count Increased: 1 (<1%) n (%); TEAE incidence: Mononeuropathies: 6 (<1%) n (%); TEAE incidence: Mouth Cyst: 1 (<1%) n (%); TEAE incidence: Musculoskeletal and Connective Tissue Signs and Symptoms NEC: 66 (5%) n (%); TEAE incidence: Musculoskeletal and connective tissue disorders: 129 (9%) n (%); TEAE incidence: Narcolepsy and Hypersomnia: 1 (<1%) n (%); TEAE incidence: Nausea Aggravated: 1 (<1%) n (%); TEAE incidence: Nervous system disorders: 155 (11%) n (%); TEAE incidence: Neuralgia NOS: 4 (<1%) n (%); TEAE incidence: Neurological Signs and Symptoms NEC: 30 (2%) n (%); TEAE incidence: Neutrophil Count Decreased: 2 (<1%) n (%); TEAE incidence: Neutrophil Count Increased: 2 (<1%) n (%); TEAE incidence: Neutrophil Percentage Decreased: 2 (<1%) n (%); TEAE incidence: Nitrite Urine Present: 4 (<1%) n (%); TEAE incidence: Non-Mechanical Ileus: 1 (<1%) n (%); TEAE incidence: Non-Site Specific Gastrointestinal Haemorrhages: 1 (<1%) n (%); TEAE incidence: Oesophageal Spasm: 1 (<1%) n (%); TEAE incidence: Oesophagitis NOS: 4 (<1%) n (%); TEAE incidence: Oral Candidiasis: 2 (<1%) n (%); TEAE incidence: Oral Dryness and Saliva Altered: 3 (<1%) n (%); TEAE incidence: Oral Soft Tissue Signs and Symptoms: 1 (<1%) n (%); TEAE incidence: Otitis Externa NOS: 2 (<1%) n (%); TEAE incidence: Otitis Media NOS: 3 (<1%) n (%); TEAE incidence: Painful Defaecation: 1 (<1%) n (%); TEAE incidence: Pancreatitis Acute: 1 (<1%) n (%); TEAE incidence: Paraesthesia: 3 (<1%) n (%); TEAE incidence: Paraesthesias and Dysaesthesias: 5 (<1%) n (%); TEAE incidence: Periodontitis: 3 (<1%) n (%); TEAE incidence: Peripheral Neuropathies NEC: 1 (<1%) n (%); TEAE incidence: Peripheral Neuropathy NOS: 1 (<1%) n (%); TEAE incidence: Peritonsillar Abscess: 1 (<1%) n (%); TEAE incidence: Petit Mal Epilepsy: 1 (<1%) n (%); TEAE incidence: Pharyngitis Streptococcal: 1 (<1%) n (%); TEAE incidence: Pharyngotonsillitis: 1 (<1%) n (%); TEAE incidence: Physical Examination Procedures: 23 (2%) n (%); TEAE incidence: Pituitary Analyses Anterior: 2 (<1%) n (%); TEAE incidence: Platelet Analyses: 3 (<1%) n (%); TEAE incidence: Platelet Count Decreased: 2 (<1%) n (%); TEAE incidence: Platelet Count Increased: 1 (<1%) n (%); TEAE incidence: Pneumonia NOS: 6 (<1%) n (%); TEAE incidence: Post Herpetic Neuralgia: 1 (<1%) n (%); TEAE incidence: Proctalgia: 6 (<1%) n (%); TEAE incidence: Protein Urine Present: 7 (<1%) n (%); TEAE incidence: Pruritus Ani: 3 (<1%) n (%); TEAE incidence: Pseudofolliculitis Barbae: 1 (<1%) n (%); TEAE incidence: Pyelonephritis Acute NOS: 1 (<1%) n (%); TEAE incidence: Pyelonephritis NOS: 3 (<1%) n (%); TEAE incidence: Qrs Axis Abnormal: 1 (<1%) n (%); TEAE incidence: Radiculitis Lumbosacral: 1 (<1%) n (%); TEAE incidence: Rectal Haemorrhage: 20 (1%) n (%); TEAE incidence: Rectal Polyp: 1 (<1%) n (%); TEAE incidence: Rectal Prolapse: 1 (<1%) n (%); TEAE incidence: Rectal Tenesmus: 5 (<1%) n (%); TEAE incidence: Rectal Ulcer: 1 (<1%) n (%); TEAE incidence: Red Blood Cell Analyses: 2 (<1%) n (%); TEAE incidence: Red Blood Cell Count Decreased: 1 (<1%) n (%); TEAE incidence: Red Blood Cell Sedimentation Rate Increased: 1 (<1%) n (%); TEAE incidence: Red Blood Cells Urine Positive: 2 (<1%) n (%); TEAE incidence: Regurgitation of Food: 1 (<1%) n (%); TEAE incidence: Renal Function Analyses: 2 (<1%) n (%); TEAE incidence: Restless Leg Syndrome: 1 (<1%) n (%); TEAE incidence: Retching: 3 (<1%) n (%); TEAE incidence: Sciatica: 3 (<1%) n (%); TEAE incidence: Sensitivity of Teeth: 1 (<1%) n (%); TEAE incidence: Sensory Abnormalities NEC: 6 (<1%) n (%); TEAE incidence: Sepsis, Bacteraemia and Viraemia: 3 (<1%) n (%); TEAE incidence: Serum Ferritin Decreased: 1 (<1%) n (%); TEAE incidence: Sinus Headache: 1 (<1%) n (%); TEAE incidence: Sinusitis Acute NOS: 2 (<1%) n (%); TEAE incidence: Sinusitis Chronic NOS: 1 (<1%) n (%); TEAE incidence: Skeletal and Cardiac Muscle Analyses: 32 (2%) n (%); TEAE incidence: Skin and Subcutaneous Tissue Abscess NOS: 1 (<1%) n (%); TEAE incidence: Sleep Apnoea Syndrome: 1 (<1%) n (%); TEAE incidence: Sleep Apnoeas: 1 (<1%) n (%); TEAE incidence: Sleep Talking: 1 (<1%) n (%); TEAE incidence: Stomatitis: 1 (<1%) n (%); TEAE incidence: Stomatitis and Ulceration: 2 (<1%) n (%); TEAE incidence: Stools Watery: 2 (<1%) n (%); TEAE incidence: Syncope: 4 (<1%) n (%); TEAE incidence: Taeniasis: 1 (<1%) n (%); TEAE incidence: Tension Headaches: 2 (<1%) n (%); TEAE incidence: Tinea Pedis: 1 (<1%) n (%); TEAE incidence: Tissue Enzyme Analyses NEC: 7 (<1%) n (%); TEAE incidence: Tongue Disorders NEC: 1 (<1%) n (%); TEAE incidence: Tonsillitis Acute NOS: 2 (<1%) n (%); TEAE incidence: Tonsillitis NOS: 11 (<1%) n (%); TEAE incidence: Tooth Abscess: 2 (<1%) n (%); TEAE incidence: Tooth Caries NOS: 3 (<1%) n (%); TEAE incidence: Toothache: 11 (<1%) n (%); TEAE incidence: Torticollis: 1 (<1%) n (%); TEAE incidence: Tracheitis NOS: 5 (<1%) n (%); TEAE incidence: Tracheobronchitis: 1 (<1%) n (%)
